In US20240415918A1, “Polypeptide and its use as a CCK receptor agonist/antagonist” (Centre for Regenerative Medicine & Health, Hong Kong …, priority 2021, published 2024):
Where a SMILES comes first, the peptide text is derived from it. [ ]: non-standard residue; d: D form. The star is where a group is joined. sY = N[C@@H](Cc1ccc(OS(=O)(=O)O)cc1)C(=O)O; NMeW = CN[C@@H](Cc1c[nH]c2ccccc12)C(=O)O; Phe(3-Br) = N[C@@H](Cc1cccc(Br)c1)C(=O)O; Fmoc = O=C(OCC1c2ccccc2-c2ccccc21)*; Gly(octyl) = CCCCCCCC[C@H](N)C(=O)O; NMeNle = CCCC[C@H](NC)C(=O)O; Nle = CCCC[C@H](N)C(=O)O

Key:
[1] = target: T1, CCK-B receptors (CHO-CCK) (Homo sapiens, UniProt P32239); assay: Calcium flux (Fluo-8) agonist test on CHO-CCK model cells; assay type: cell-based; settings: for EC50: CHO-CCK cells; for Agonistic Activity (%) at 10 μM: compound at 10 μM, percentage of signal of 20 nM CCK8 alone
T1 construct: expressed in transfected cells; host or cells: CHO (CHO-CCK model cells)
T1 sequence (P32239 1-447): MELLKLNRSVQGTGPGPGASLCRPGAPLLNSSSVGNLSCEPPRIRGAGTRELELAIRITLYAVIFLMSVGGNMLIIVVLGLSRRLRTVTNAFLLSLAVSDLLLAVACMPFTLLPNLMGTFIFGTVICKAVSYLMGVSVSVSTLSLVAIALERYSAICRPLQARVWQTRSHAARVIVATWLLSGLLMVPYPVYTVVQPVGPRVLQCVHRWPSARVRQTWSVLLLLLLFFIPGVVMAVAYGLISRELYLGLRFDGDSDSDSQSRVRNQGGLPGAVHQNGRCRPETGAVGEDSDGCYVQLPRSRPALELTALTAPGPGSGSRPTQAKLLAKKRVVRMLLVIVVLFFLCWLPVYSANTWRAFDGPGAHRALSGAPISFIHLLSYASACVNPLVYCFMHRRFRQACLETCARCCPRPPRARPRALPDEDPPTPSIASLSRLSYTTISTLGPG
In short: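 Agonist-mode Fluo-8 calcium flux read on CHO-CCK cells after dye loading 30 min at 37 °C plus 30 min at room temperature.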

[2] = target: T1, CCK-B receptors (CHO-CCK); assay: Calcium flux (Fluo-8) antagonist test on CHO-CCK model cells in presence of CCK8; assay type: cell-based
[3] = compound alone, 100% = 20 nM CCK8
[4] = compound together with 10 nM CCK8
[5] = Fluo-8 calcium flux, 100% control = 20 nM CCK8
[6] = Fluo-8 calcium flux, bound in μM
[7] = in presence of 10 nM CCK8, bound in μM

SMILES	EC50 [1, 3]	EC50 [2, 4]	EC50 [1, 5]	EC50 ([2]; in presence of 10 nM CCK8)	also measured
CSCC[C@H](NC(=O)[C@@H](Cc1c[nH]c2ccccc12)NC(C)=O)C(=O)N[C@@H](Cc1c[nH]cn1)C(=O)N[C@@H](Cc1cccc(Br)c1)C(N)=O [HT-189, Ac-D-Trp-Met-His-Phe(3-Br)-NH2] (Ac-[dW]MH[Phe(3-Br)]-NH2)	1.99 µM	5.95 µM			
CSCC[C@H](NC(=O)[C@H](Cc1ccc(OS(=O)(=O)O)cc1)NC(=O)[C@H](CC(=O)O)NC(C)=O)C(=O)NCC(=O)N[C@@H](Cc1c[nH]c2ccccc12)C(N)=O [HT-216, Ac-Asp-Tyr(SO3H)-Met-Gly-Trp-NH2] (Ac-D[sY]MGW-NH2)			0.588 µM	1.44 µM	
CCCC[C@H](NC(=O)[C@H](Cc1c[nH]c2ccccc12)NC(=O)CNC(C)=O)C(=O)N[C@@H](CC(=O)O)C(=O)N[C@@H](Cc1cccc(Br)c1)C(N)=O [HT-215, Ac-Gly-Trp-Nle-Asp-Phe(3-Br)-NH2] (Ac-GW[Nle]D[Phe(3-Br)]-NH2)				0.237 µM	EC50 ([1]; Fluo-8 calcium flux, bound printed in nm in the cell): < 0.0001 µM
CCCCCCCC[C@H](NC(=O)[C@H](Cc1c[nH]c2ccccc12)NC(C)=O)C(=O)N[C@@H](CC(=O)O)C(=O)N[C@@H](Cc1cccc(Br)c1)C(N)=O [HT-261, Ac-D-Trp-Da-Asp-Phe(3-Br)-NH2] (Ac-W[Gly(octyl)]D[Phe(3-Br)]-NH2)			0.362 µM	3.82 µM	
CCCC[C@H](NC(=O)[C@H](Cc1c[nH]c2ccccc12)NC(C)=O)C(=O)N[C@@H](CC(=O)O)C(=O)N[C@@H](Cc1cn(C)c2ccccc12)C(N)=O [HT-228, Ac-D-Trp-Nle-Asp-(1-Me-Trp)-NH2]			0.262 µM	3.07 µM	
CS(=O)(=O)CC[C@H](NC(=O)[C@H](N)Cc1c[nH]c2ccccc12)C(=O)N[C@@H](CC(=O)O)C(=O)N[C@@H](Cc1cccc(Cl)c1)C(N)=O [HT-60, D-Trp-Met(O2)-Asp-Phe(3-Cl)-NH2]	9.24 µM	6.61 µM			Agonistic Activity (%) at 10 μM [1]: 50.72%
CSCC[C@H](NC(=O)[C@H](Cc1ccc(OS(=O)(=O)O)cc1)NC(=O)[C@H](CC(=O)O)NC(C)=O)C(=O)NCC(N)=O [HT-208, Ac-Asp-Tyr(SO3H)-Met-Gly-NH2] (Ac-D[sY]MG-NH2)					EC50 [1, 6]: > 10 µM; EC50 [2, 7]: > 10 µM
CSCC[C@H](NC(=O)[C@H](N)Cc1c[nH]c2ccccc12)C(=O)N[C@@H](CC(=O)O)C(=O)N[C@@H](Cc1ccc(Cl)cc1)C(N)=O [HT-35, D-Trp-Met-Asp-Phe(4-CII)-NH2]	0.18 µM	0.755 µM			Agonistic Activity (%) at 10 μM [1]: 109.16%
C[S+]([O-])CC[C@H](NC(=O)[C@H](N)Cc1c[nH]c2ccccc12)C(=O)N[C@@H](CC(=O)O)C(=O)N[C@@H](Cc1ccc(F)cc1)C(N)=O (stereo partly drawn) [HT-53, D-Trp-Met(O)-Asp-Phe(4-F)-NH2]		8.88 µM			Agonistic Activity (%) at 10 μM [1]: 30.00%
CCCC[C@H](NC(=O)[C@H](Cc1c[nH]c2ccccc12)N(C)C(=O)CNC(=O)OCC1c2ccccc2-c2ccccc21)C(=O)N[C@@H](CC(=O)O)C(=O)N[C@@H](Cc1cccc(Br)c1)C(N)=O [HT-250, Fmoc-Gly-(N-Me-D-Trp)-Nle-Asp-Phe(3-Br)-NH2]			0.386 µM	2.85 µM	
CCCC[C@@H](C(=O)N[C@@H](CC(=O)O)C(=O)N[C@@H](Cc1cccc(Br)c1)C(N)=O)N(C)C(=O)[C@H](Cc1c[nH]c2ccccc12)N(C)C(=O)OCC1c2ccccc2-c2ccccc21 [HT-200, Fmoc-(N-Me-Trp)-(N-Me-Nle)-Asp-Phe(3-Br)-NH2] (Fmoc-[NMeW][NMeNle]D[Phe(3-Br)]-NH2)			0.616 µM	1.77 µM	
CSCC[C@H](NC(=O)[C@H](Cc1c[nH]c2ccccc12)NC(C)=O)C(=O)N[C@@H](CC(=O)O)C(=O)N[C@@H](CC(C)C)C(N)=O [HT-192, Ac-Trp-Met-Asp-Leu-NH2] (Ac-WMDL-NH2)		8.76 µM			EC50 ([1]; compound alone, bound in μM): > 10 µM
CSCC[C@H](NC(=O)[C@H](Cc1c[nH]c2ccccc12)NC(C)=O)C(=O)N[C@@H](CC(=O)O)C(=O)N[C@@H](Cc1c[nH]c2ccccc12)C(N)=O [HT-193, Ac-Trp-Met-Asp-Trp-NH2] (Ac-WMDW-NH2)	0.000814 µM	0.057 µM			
CCCC[C@H](NC(=O)[C@H](Cc1c[nH]c2ccccc12)NC(=O)CNC(C)=O)C(=O)N[C@@H](CC(=O)O)C(N)=O [HT-214, Ac-Gly-Trp-Nle-Asp-NH2] (Ac-GW[Nle]D-NH2)					EC50 [1, 6]: > 10 µM; EC50 [2, 7]: > 10 µM
CSCC[C@H](NC(=O)[C@H](N)Cc1c[nH]c2ccccc12)C(=O)N[C@@H](CC(=O)O)C(=O)N[C@@H](Cc1cccc(Cl)c1)C(N)=O [HT-26, D-Trp-Met-Asp-Phe(3-Cl)-NH2]	0.0784 µM	0.635 µM			Agonistic Activity (%) at 10 μM [1]: 85.75%
